Earlier results in US12357549B2, “Method for dyeing keratinous material, comprising the use of an organosilicon compound, a dyeing compound, a sealing reagent, and a pre-treatment agent” (Henkel AG & Co. KGaA, priority 2021, dated 2025).

Details: 25° C.

Row | solubility in water | SMILES | other results
1 | more than 7 g/L | O=S(=O)([O-])c1ccc(N=Nc2c(O)ccc3ccccc23)cc1.[Na+] [Acid Orange 7, sodium salt of 4-[(2-hydroxy-1-naphthyl)azo]benzenesulfonate] | 
2 |  | CCN(Cc1cccc(S(=O)(=O)[O-])c1)c1ccc(C(=C2C=CC(=[N+](CC)Cc3cccc(S(=O)(=O)[O-])c3)C=C2)c2ccccc2S(=O)(=O)[O-])cc1.[Na+].[Na+] [Acid Blue 9] | water solubility: more than 20 wt %
3 |  | O=C([O-])C1=NN(c2ccc(S(=O)(=O)[O-])cc2)C(=O)C1N=Nc1ccc(S(=O)(=O)[O-])cc1.[Na+].[Na+].[Na+] (centres unmarked) [Acid Yellow 23, trisodium salt of 4,5-dihydro-5-oxo-1-(4-sulfophenyl)-4-((4-sulfophenyl)azo)-1H-pyrazole-3-carboxylic acid] | solubility in water (in words): readily soluble in water
4 | 2500 µg/mL | Nc1cc(S(=O)(=O)[O-])cc2cc(S(=O)(=O)[O-])c(N=Nc3ccccc3)c(O)c12.[Na+].[Na+] [Acid Red 33, disodium salt of 5-amino-4-hydroxy-3-(phenylazo)-naphthalene-2,7-disulfonate] | 

Row | SMILES | solubility in water | other results
5 | O=C([O-])c1c(Cl)c(Cl)c(Cl)c(Cl)c1-c1c2c(Br)cc(=O)c(Br)c-2oc2c(Br)c(O)cc(Br)c12.O=C([O-])c1c(Cl)c(Cl)c(Cl)c(Cl)c1-c1c2c(Br)cc(=O)c(Br)c-2oc2c(Br)c(O)cc(Br)c12.[Na+].[Na+] [Acid Red 92, disodium salt of 3,4,5,6-tetrachloro-2-(1,4,5,8-tetrabromo-6-hydroxy-3-oxoxanthen-9-yl)benzoic acid] | greater than 10 g/L | 
